Assay results as given in patent publication US11109593B2, “Isoxazolin-5-one derivative and herbicide containing same as active ingredient” (HOKKO CHEMICAL INDUSTRY CO., LTD., priority 2017, dated 2021).

Key:
Assay type in all cases: in vivo
[1] = tested on: broad leaf weeds (Lindernia pyxidaria and Monochoria vaginalis); experiment: Test Example 1: herbicidal effect test by treatment of rice paddy soil (immediately after seeding); conditions: 120 g/10a active ingredient, dry weight vs untreated area, 14 days after treatment
Description: (§1) Herbicidal Effect Test by Treatment of Rice Paddy Soil
(§2) Wagner pots with an area of 1/10000 ares were filled with a paddy soil, and after adding water, a compound fertilizer (N:P:K=17:17:17) was added, followed by soil puddling. Then, Echinochloa crus-galli, broad leaf weeds (Lindernia pyxidaria and Monochoria vaginalis) and Scirpus juncoides, 30 seeds each, were sown in a depth of 0 to 1 cm. Water was poured immediately after seeding, and the water depth was kept at about 3 cm. The subsequent management was conducted in a glass greenhouse. Immediately after that, emulsions prepared using the compounds in Table 3 below according to Formulation Example 5 were diluted with water, and a certain amount of the water-diluted agent solutions were dropped. The converted amount of the applied active ingredient corresponded to 120 g per 10 ares.
(§3) This test was conducted in a double system per one agent solution concentration area, and the herbicidal rates (%) were determined by the following equation (Math. 1) on 14 days after the treatment with the agents. Herbicidal Rate (%)={1-(Average Dry Weight (g) of Plant of Treated Area)/(Average Dry Weight (g) of Plant of Untreated Area)}×100 [Math. 1]
(§4) The compound numbers in Table 3 are the same as those in Table 1 and Table 2 above.

Echinochloa crus-galli [2] = experiment: as above; conditions: 120 g/10a active ingredient, dry weight vs untreated area, 14 days after treatment
Description: as §1, §2, §3, §4

Scirpus juncoides [3] = experiment: as above; conditions: 120 g/10a active ingredient, dry weight vs untreated area, 14 days after treatment
Description: as §1, §2, §3, §4

[4] = tested on: broad leaf weeds (Lindernia pyxidaria and Monochoria vaginalis); experiment: Test Example 2: herbicidal effect test by treatment during growing period in paddy rice cultivation (seven days after seeding); conditions: 120 g/10a active ingredient, assessed 14 days after treatment, dry weight vs untreated area
Description: as §3
(§5) Herbicidal Effect Test by Treatment During Growing Period in Paddy Rice Cultivation
as §2, with “was mixed,” for “was added,”, “greenhouse. Emulsions” for “greenhouse. Immediately after that, emulsions”, “Table 4” for “Table 3”, “with water seven days after seeding,” for “with water,”, “ares. The test was conducted in a double system per one agent solution concentration area, and the herbicidal rates (%) were determined by the equation (Math. 1) on 14 days after the treatment with the agents. […] The compound numbers in Table 4 are the same as those in Table 1 and Table 2 above.” for “ares.”

Echinochloa crus-galli [5] = experiment: as above; conditions: 120 g/10a active ingredient, assessed 14 days after treatment, dry weight vs untreated area
Description: as §3, §5
as §2, with “was mixed,” for “was added,”, “greenhouse. Emulsions” for “greenhouse. Immediately after that, emulsions”, “Table 4” for “Table 3”, “with water seven days after seeding,” for “with water,”, “ares. The test was conducted in a double system per one agent solution concentration area, and the herbicidal rates (%) were determined by the equation (Math. 1) on 14 days after the treatment with the agents. […] The compound numbers in Table 4 are the same as those in Table 1 and Table 2 above.” for “ares.”

Scirpus juncoides [6] = experiment: as above; conditions: 120 g/10a active ingredient, assessed 14 days after treatment, dry weight vs untreated area
Description: as §3, §5
as §2, with “was mixed,” for “was added,”, “greenhouse. Emulsions” for “greenhouse. Immediately after that, emulsions”, “Table 4” for “Table 3”, “with water seven days after seeding,” for “with water,”, “ares. The test was conducted in a double system per one agent solution concentration area, and the herbicidal rates (%) were determined by the equation (Math. 1) on 14 days after the treatment with the agents. […] The compound numbers in Table 4 are the same as those in Table 1 and Table 2 above.” for “ares.”

SMILES | Herbicidal rate (%) Lindernia pyxidaria [1] [%] | Herbicidal rate (%) Monochoria vaginalis [1] [%] | Herbicidal rate (%) Echinochloa crus-galli (Echinochloa crus-galli [2]) [%] | Herbicidal rate (%) Scirpus juncoides (Scirpus juncoides [3]) [%] | Herbicidal rate (%) Lindernia pyxidaria [4] [%] | Herbicidal rate (%) Monochoria vaginalis [4] [%] | Herbicidal rate (%) Echinochloa crus-galli (Echinochloa crus-galli [5]) [%] | Herbicidal rate (%) Scirpus juncoides (Scirpus juncoides [6]) [%]
Cc1c(Cc2ccccc2N(S(=O)(=O)C(F)(F)F)S(=O)(=O)C(F)(F)F)c(=O)on1Cc1ccc(OC(F)(F)F)cc1 [Compound 1-1023] | 40 | 50 | 50 | 50 | 40 | 40 | 40 | 40
Cc1c(Cc2ccccc2N(S(=O)(=O)C(F)(F)F)S(=O)(=O)C(F)(F)F)c(=O)on1Cc1ccc(F)cc1F [Compound 1-1026] | 100 | 100 | 100 | 90 | 100 | 90 | 60 | 80
Cc1c(Cc2ccccc2N(S(=O)(=O)C(F)(F)F)S(=O)(=O)C(F)(F)F)c(=O)on1Cc1ccc(C(C)(C)C)cc1 [Compound 1-1019] | 60 | 60 | 40 | 40 | 40 | 40 | 0 | 0
Cc1c(Cc2ccccc2NS(=O)(=O)C(F)(F)F)c(=O)on1CC(F)(F)c1ccccc1 [Compound 1-220] | 100 | 100 | 90 | 90 | 100 | 90 | 40 | 90
Cc1ccc(Cn2oc(=O)c(Cc3ccccc3N(S(=O)(=O)C(F)(F)F)S(=O)(=O)C(F)(F)F)c2C)cc1 [Compound 1-1018] | 100 | 90 | 90 | 90 | 80 | 80 | 40 | 80
Cc1c(Cc2ccccc2NS(=O)(=O)C(F)(F)F)c(=O)on1CCOC(C)C [Compound 1-155] | 60 | 60 | 90 | 80 | 60 | 60 | 100 | 80
COc1ccc(Cn2oc(=O)c(Cc3ccccc3NS(=O)(=O)C(F)(F)F)c2C)cc1 [Compound 1-195] | 70 | 60 | 90 | 90 | 40 | 40 | 80 | 80
